US20240350432A1, “CENTRAL NERVOUS SYSTEM MODULATORS AS COVID-19 THERAPEUTICS” (priority 2023, published 2024)
Entries after “also recorded” stand apart in the source; their conditions may differ.

Key:
[1] = test system: SARS-CoV-2, Beta variant; design: species or system mice; conditions: mouse, in vivo, ip, 10 mg/kg
[2] = test system: SARS-CoV-2, Beta variant; format: in vivo; conditions: COVID-19 positive mice; for body weight nonlinear regression, Best fit / body weight as percent of baseline weight over time: 10 mg/kg I.P. BID, 10 day group; for body weight as percent of baseline weight over time: 10 mg/kg

| SMILES | survival outcome [1] | body weight nonlinear regression, Best fit [2] | body weight as percent of baseline weight over time [2] | body weight nonlinear regression, Slope 1 ([2]; Segmental Line fit) | body weight nonlinear regression, Slope2 ([2]; Segmental Line fit) | body weight nonlinear regression, X0 ([2]; Segmental Line fit) |
| --- | --- | --- | --- | --- | --- | --- |
| CC(C(O)c1ccc(O)cc1)N1CCC(Cc2ccccc2)CC1 (stereo not drawn) [ifenprodil] | some protective effect | Segmental Line | appear to reduce observable signs of disease; also recorded: reduction in body weight starting around day 5; also recorded: body weight returned to normal levels by day 10 post-inoculation | -0.8076 | 0.8604 | 6 |
| CC12CC3CC(C)(C1)CC(N)(C3)C2 [memantine] | good survival; also recorded: significantly improved survival outcome | Horizontal Line | appear to reduce observable signs of disease; also recorded: little to no fluctuation in body weight | – | – | – |
